Test results as given in patent publication US10426773B2, “Systems pharmacology for treating ocular disorders” (Case Western Reserve Univeristy, priority 2011, dated 2019).
Entries after “also recorded” stand apart in the source; their conditions may differ. Read-outs that look alike come from different tables or passages of the source.

Legend:
[1] = system: ROS generation in photoreceptors of Abca4−/−Rdh8−/− mice; experiment: In vivo detection of ROS (DHE probe) in retinas of light-exposed Abca4−/−Rdh8−/− mice; parameters: species or system mouse; settings: Example 1; pretreatment before light 10,000 lux 30 min; retinas 3 h after illumination
Experimental: The ROS probe, DHE, at a dose of 20 mg/kg body weight was administered to Abca4^−/−Rdh8^−/− mice via intraperitoneal injection 30 min prior to light exposure. Eye cups obtained after removing the cornea, lens and vitreous body from enucleated eye globes 3 h post light illumination were fixed in 4% paraformaldehyde. Cryosections were prepared from fixed eye cups and cut at 12 am thickness for microscopic assessment of ROS signal fluorescence in the retina.
The ROS probe, DHE, at a dose of 20 mg/kg body weight in 25 μl of DMSO, was administered to Abca4^−/−Rdh8^−/− mice via intraperitoneal injection 1 h prior to light exposure. Eye cups obtained after removing the cornea, lens, and vitreous body from enucleated eye globes 3 h post light illumination were fixed in 4% paraformaldehyde. Cryosections were prepared from fixed eye cups and cut at 12-am thickness for microscopic assessment of ROS fluorescence in the retina with ImageJ software (National Institutes of Health).

ARPE19 cells [2] = system: ARPE19 cells
ARPE19 cells [3] = experiment: In vitro detection and quantification of intracellular ROS in ARPE19 cells (DCF-DA / DHE probes); type: cell-based, human; settings: for intracellular ROS production: retinoid applied to cultured ARPE19 cells, ROS probe DCF-DA or DHE
Experimental: ARPE19 cells were cultured in Dulbecco's Modified Eagle's Medium (DMEM) (low glucose) supplemented with 10% fetal bovine serum. The ROS probes, 2′,7′-dichlorofluorescein diacetate (DCF-DA, Sigma, St. Louis, Mo.) or dihydroethidium (DHE, Invitrogen Corporation, Carlsbad, Calif.) were added after indicated pretreatments and incubated at 37° C. for 10-min before thorough washing in PBS and the ROS signals were subsequently observed at the same exposure setting under an inverted fluorescence microscope (Leica DMI 6000 B). Fluorescence quantification was performed with Metamorph imaging software (Molecular Devices, Downington, Pa.). Thresholds corresponding to fluorescent signals were set from the images and average fluorescence intensities were recorded for statistical analysis.

Abca4−/−Rdh8−/− mice [4] = experiment: Bright light-induced retinal degeneration in Abca4−/−Rdh8−/− mice, OCT imaging of retinal structure; type: in vivo, mouse; settings: pretreatment before light 10,000 lux 30 min; OCT 7 days after light exposure
Abca4−/−Rdh8−/− mice [5] = experiment: Bright light-induced retinal degeneration in Abca4−/−Rdh8−/− mice, ERG retinal function; settings: pretreatment before light 10,000 lux 30 min, ERG 7 days to 2 weeks after
Abca4−/−Rdh8−/− mice [6] = experiment: Bright light-induced retinal degeneration in Abca4−/−Rdh8−/− mice, retinal histology and immunohistochemistry; type: in vivo, mouse; settings: pretreatment before light 10,000 lux 30 min; 7-10 days after light exposure
Experimental: Retinal histology and immunohistochemistry (IHC) was performed as previously described. Briefly, eye cups free of cornea, lens and vitreous body were fixed in 2% glutaraldehyde/4% paraformaldehyde and processed for Epon embedding. Sections 1 am thick were cut and stained with toluidine blue for histological examination under a light microscope. IHC analysis was performed on 12 am thick cryosections prepared from 4% paraformaldehyde-fixed eye cups. Collected cryosections were subjected to examination for rhodopsin, PNA and DAPI expression.
Retinal immunohistochemistry (IHC) was carried out as previously described. Briefly, eyes were enucleated and eye cups were made to eliminate cornea, lens and vitreous body and fixed in 4% paraformaldehyde and processed for cryosectioning. 12 am thick cryosections were collected cryosections and subjected to examination for rhodopsin, peanut agglutinin lectin (PNA) and DAPI expression.
Retinal immunohistochemistry (IHC) was performed as previously described. Briefly, eyes were enucleated and, after removal of the cornea, lens and vitreous body, eye cups were fixed in 4% paraformaldehyde and processed for cryosectioning. Twelve μm thick cryosections were cut, collected and examined for rhodopsin expression, peanut agglutinin lectin (PNA) for cone sheath and nuclear DAPI staining. […]

Abca4−/−Rdh8−/− mice [7] = experiment: Bright light-induced retinal degeneration in Abca4−/−Rdh8−/− mice, SLO autofluorescence imaging; type: in vivo, mouse; settings: pretreatment before light 10,000 lux 30 min; SLO 8-9 days after light exposure
Experimental: SLO (Heidelberg Engineering, Heidelberg, Germany) was carried out for whole fundus imaging of mouse retinas. Mice were anesthetized by intraperitoneal injection of anesthetic cocktail indicated above, which was followed by pupil dilation using 1% tropicamide prior to SLO imaging under autofluorescence mode.
SLO (Heidelberg Engineering) was carried out for in vivo whole fundus imaging of mouse retinas. […] Numbers of autofluorescent spots were counted and subjected to statistical analyses as described below.
SLO (Heidelberg Engineering) was carried out for whole fundus imaging of mouse retinas in vivo. Mice were anesthetized, and their pupils were dilated as described above. SLO images were then acquired in the autofluorescence mode.

[8] = retinoid alone, at the doses examined

CC(C)C[C@H](CN)CC(=O)O (single isomer, unassigned) [R and S enantiomer of pregabalin, pregabalin]
ROS production in the ONL / photoreceptors (DHE signal) [1]: also consistently observed

CC1=C(/C=C/C(C)=C/C=C/C(C)=C/c2cc(/C=C/C=C(C)/C=C/C3=C(C)CCCC3(C)C)cc[n+]2CCO)C(C)(C)CCC1 [A2E, di-retinoid-pyridinium-ethanolamine]
cell death (ARPE19 cells [2]; [8]): neither atROL, atRA nor A2E induced cell death
intracellular ROS production (ARPE19 cells [3]): did not induce overproduction of intracellular ROS

COc1cc(C(C)=O)ccc1O [APO, Apocynin]
ARPE19 cell survival (ARPE19 cells [2]; APO together with atRAL): improved ARPE19 cell survival
ROS production in the ONL / photoreceptors (DHE signal) [1]: substantially decreased ROS production
atRAL-induced intracellular ROS generation (ARPE19 cells [3]; APO applied to ARPE19 cells together with atRAL): inhibited atRAL-induced intracellular ROS generation
retinal / photoreceptor morphology by OCT imaging (Abca4−/−Rdh8−/− mice [4]): well-preserved retinal morphology
retinal function by ERG (a-wave and b-wave amplitudes) (Abca4−/−Rdh8−/− mice [5]): protective effect
retinal histology / immunohistochemistry (rhodopsin, PNA, DAPI; ONL) (Abca4−/−Rdh8−/− mice [6]): nearly intact retinal morphology

c1ccc([I+]c2ccccc2)cc1 [DPI, diphenyliodonium]
retinal / photoreceptor morphology by OCT imaging (Abca4−/−Rdh8−/− mice [4]): well-preserved retinal morphology
retinal function by ERG (a-wave and b-wave amplitudes) (Abca4−/−Rdh8−/− mice [5]): protective effect
retinal histology / immunohistochemistry (rhodopsin, PNA, DAPI; ONL) (Abca4−/−Rdh8−/− mice [6]): nearly intact retinal morphology

CC(C)n1cc2c3c(cccc31)[C@H]1C[C@@H](C(=O)N[C@H]3CCC[C@H]3O)CN(C)[C@@H]1C2 [LY 215840, (8β)-N-[(1S,2R)-2-Hydroxycyclopentyl]-1-isopropyl-6-methylergoline-8-carboxamide]
retinal / photoreceptor morphology by OCT imaging (Abca4−/−Rdh8−/− mice [4]): profound preservation of photoreceptor morphology
retinal autofluorescence spots by SLO imaging (Abca4−/−Rdh8−/− mice [7]): significantly reduced formation of autofluorescence spots
retinal function by ERG (a-wave and b-wave amplitudes) (Abca4−/−Rdh8−/− mice [5]; listed as LY): substantial preservation of the scotopic ERG response; also recorded: substantial preservation of this response
retinal histology / immunohistochemistry (rhodopsin, PNA, DAPI; ONL) (Abca4−/−Rdh8−/− mice [6]): substantially preserved photoreceptor morphology

CC(Oc1c(Cl)cccc1Cl)C1=NCCN1.Cl (stereo not drawn) [Lofexidine]
retinal / photoreceptor morphology by OCT imaging (Abca4−/−Rdh8−/− mice [4]): significantly prevented
retinal autofluorescence spots by SLO imaging (Abca4−/−Rdh8−/− mice [7]): markedly less autofluorescence spots
retinal function by ERG (a-wave and b-wave amplitudes) (Abca4−/−Rdh8−/− mice [5]; listed as LOF): substantial preservation of the scotopic ERG response; also recorded: substantial preservation of this response

COc1cc(N)c(Cl)cc1C(=O)OCCCN1CCCCC1.Cl [RS 23579-190]
retinal / photoreceptor morphology by OCT imaging (Abca4−/−Rdh8−/− mice [4]): profound preservation of photoreceptor morphology
retinal autofluorescence spots by SLO imaging (Abca4−/−Rdh8−/− mice [7]): significantly reduced formation of autofluorescence spots
retinal function by ERG (a-wave and b-wave amplitudes) (Abca4−/−Rdh8−/− mice [5]; listed as RS): substantial preservation of the scotopic ERG response; also recorded: substantial preservation of this response
retinal histology / immunohistochemistry (rhodopsin, PNA, DAPI; ONL) (Abca4−/−Rdh8−/− mice [6]): substantially preserved photoreceptor morphology

CC1=C(/C=C/C(C)=C/C=C/C(C)=C/CN)C(C)(C)CCC1 [Ret-NH2, all-trans-retinylamine]
ROS production in the ONL / photoreceptors (DHE signal) [1]: significantly decreased ROS production

CNc1cc(NS(=O)(=O)c2ccc(N)cc2)nc(NC)n1 [Ro 04-6790, 4-Amino-N-[2,6-bis(methylamino)-4-pyrimidinyl]benzenesulfonamidev]
retinal / photoreceptor morphology by OCT imaging (Abca4−/−Rdh8−/− mice [4]): profound preservation of photoreceptor morphology
retinal autofluorescence spots by SLO imaging (Abca4−/−Rdh8−/− mice [7]): significantly reduced formation of autofluorescence spots
retinal function by ERG (a-wave and b-wave amplitudes) (Abca4−/−Rdh8−/− mice [5]; listed as RO): substantial preservation of the scotopic ERG response; also recorded: substantial preservation of this response
retinal histology / immunohistochemistry (rhodopsin, PNA, DAPI; ONL) (Abca4−/−Rdh8−/− mice [6]): substantially preserved photoreceptor morphology

CC1=C(/C=C/C(C)=C/C=C/C(C)=C/C(=O)O)C(C)(C)CCC1 [atRA, all-trans-retinoic acid]
cell death (ARPE19 cells [2]; human, 24 h): neither atROL, atRA nor A2E induced cell death
intracellular ROS production (ARPE19 cells [3]): did not induce overproduction of intracellular ROS

CC1=C(/C=C/C(C)=C/C=C/C(C)=C/C=O)C(C)(C)CCC1 [atRAL, all-trans-retinal]
intracellular ROS production (ARPE19 cells [3]): significantly elevated intracellular ROS production

CC1=C(/C=C/C(C)=C/C=C/C(C)=C/CO)C(C)(C)CCC1 [atROL, all-trans-retinol]
cell death (ARPE19 cells [2]; [8]): neither atROL, atRA nor A2E induced cell death
intracellular ROS production (ARPE19 cells [3]): did not induce overproduction of intracellular ROS
